Active and inactive are the calls of the source. The calls are words filed in the database; no cut-off is given here.
Columns and labels:
SW480 [1] = experiment: Cell cycle arrest in human SW480 cells assessed as accumulation at G2/M phase at 0.7 uM incubated for 24 hrs by RNaseA/propidium iodide staining based flow cytometry (reference value: 24.74 %); type: functional
[2] = Toxicity in Balb/c mouse xenografted with human HCT-116 cells assessed as body weight change at 1 mg/kg,ip administrated for 18 days by 3 times per week; type: organism-based; conditions: in vivo, 432 h, time 18 day
HCT-116 [3] = experiment: Induction of apoptosis in human HCT-116 cells assessed as downregulation of survivin expression at 0.3 uM measured at 12 to 48 hrs by immunoblotting assay; type: functional, cell-based; conditions: time 12-48 hrs, TDE = time-dependent effect
SW480 [4] = experiment: Anti-migratory activity against human SW480 cells assessed as downregulation of Snail protein expression at 0.35 to 1.4 uM incubated for 24 hrs by immunoblotting assay; type: functional, cell-based; conditions: dose 0.35-1.4 µM
SW480 [5] = experiment: Anti-migratory activity against human SW480 cells assessed as downregulation of N-cadherin protein expression at 0.35 to 1.4 uM incubated for 24 hrs by immunoblotting assay; type: functional, cell-based; conditions: dose 0.35-1.4 µM
SW480 [6] = experiment: Induction of apoptosis in human SW480 cells assessed as necrotic cells at 0.7 uM incubated for 48 hrs by Annexin V-FITC/PI staining based flow cytometry analysis (Rvb= 0.07%); type: functional
HCT-116 [7] = experiment: Antitumor activity against human HCT-116 cells xenografted Balb/c mouse assessed as reduction in tumor growth at 1 mg/kg,ip administrated for 18 days by 3 times per week; type: functional; parameters: scale not given: the % may be the effect or the level left; conditions: time 18 day
SW480 [8] = experiment: Induction of apoptosis in human SW480 cells assessed as early apoptotic cells at 0.7 uM incubated for 48 hrs by Annexin V-FITC/PI staining based flow cytometry analysis (Rvb= 2.07%); type: functional
SW480 [9] = experiment: Induction of apoptosis in human SW480 cells assessed as necrotic cells at 0.35 uM incubated for 48 hrs by Annexin V-FITC/PI staining based flow cytometry analysis (Rvb= 0.07%); type: functional

In the case of `C[C@@H]1\C=C/C=C/C=C\C=C\C=C\C(=O)C2=C(O)C(=O)C[C@@]2(C)/C=C/C=C\C=C/C(=O)NC1`, the Activity (SW480 [1]) is reported as 17.02%, the Activity [2] is reported as “Non-Toxic” and the Activity (HCT-116 [3]) is reported as “Tde”. The Activity (SW480 [4]) was “Active”, the Activity (SW480 [5]) was “Active” and the Activity (SW480 [6]) was 0.08%. For the same compound, the Activity (HCT-116 [7]) was 67%, the Activity (SW480 [8]) was 12.31% and the Activity (SW480 [9]) was 0.06%.

Source: ChEMBL document CHEMBL5215006, “Antitumor Activity of Piceamycin by Upregulation of N-Myc Downstream-Regulated Gene 1 in Human Colorectal Cancer Cells” (J Nat Prod, 2022)
